Laboratory results: patent US8293680B2, “Fungicidal mixtures of triticonazole and difenoconazole” (BASF SE, priority 2007, dated 2012)
Read-outs that look alike come from different tables or passages of the source.

Columns and labels:
[1] = system: Botrytis cinerea; test: Activity against the grey mold Botrytis cinerea in the microtiterplate test (Botrci); format: cell-based; details: solo, MTP, 405 nm, 7 days after inoculation
[2] = system: Pyricularia oryzae; format: cell-based; details: Pyrior, solo, MTP, 405 nm, 7 days after inoculation

Question: For `CC1(C)CC/C(=C\c2ccc(Cl)cc2)C1(O)Cn1cncn1` (racemic) [Triticonazol, (±) E-5-(4-chlorobenzylidene)-2,2-dimethyl-1-(1H-1,2,4-triazol-1-ylmethyl)cyclopentanol], which Observed efficacy ([1]; 1 ppm) is on record?
Answer: 55%

Question: And the Observed efficacy ([2]; 4 ppm)?
Answer: 35%

Question: For `CC1COC(Cn2cncn2)(c2ccc(Oc3ccc(Cl)cc3)cc2Cl)O1` (stereo not shown) [Difenoconazol, 1-[2-[4-(4-chlorophenoxy)-2-chlorophenyl]-4-methyl-1,3-dioxolan-2-ylmethyl]-1H-1,2,4-triazole], which Observed efficacy ([1]; 0.25 ppm) is on record?
Answer: 30%

Question: And the Observed efficacy ([2]; 1 ppm)?
Answer: 15%
